The subject of assay [1] is insulin receptor (IR) phosphorylation (PTP1B-mediated) in HEK293T/17 cells. The experiment in a line: ELISA of insulin receptor (IR) phosphorylation in HEK293T/17 cells. The assay is classed as cell-based. The settings on record: for IR phosphorylation (ELISA signal): 3% DMSO, 10 minutes, starved HEK293T/17 cells, vs 3% DMSO control; for Δμ, null hypothesis compound-(−) = 0: difference of means vs negative control (−). The source says: Analysis of PTP1B inhibition in HEK293TCells. We prepared HEK293T/17 cells for an enzyme-linked immunosorbent assay (ELISA) by growing them in 75 cm^2 culture flasks (Corning) with DMEM media supplemented with 10% FBS, 100 units/ml penicillin, and 100 units/ml streptomycin. We replaced the media every day for 3-5 days until the cells reached 80-100% confluency.
We measured the influence of inhibitors on insulin receptor (IR) phosphorylation by using an IR-specific ELISA (FIG. 35). Briefly, we starved cells for 48 hours in FBS-free media and incubated the with inhibitors (all at 3% DMSO) for 10 minutes. After incubation, we lysed cells with lysis buffer (9803, Cell Signaling Technology) supplemented with 1× halt phosphatase inhibitor cocktail and 1× halt protease inhibitor cocktail (Thermo Fisher Scientific) for 10 min, pelleted the cell debris, and used the lysis buffer to dilute each sample to 60 mg/ml total protein. We measured IR phosphorylation in subsequent dilutions of the 60 mg/ml samples with the PathScan® Phospho-Insulin Receptor β (panTyr) Sandwich ELISA Kit (Cell Signaling Technology; #7082).
Statistical analysis and reproducibility. We determined statistical significance (FIG. 23H) with a two-tailed Student's t-test (details in TABLE 14), and we used an F-test to compare one- and two-parameter models of inhibition (TABLE 12).
(In general: An ELISA detects its analyte on a solid surface through an enzyme-linked reagent.)

Assay [2] has as its target T1, PTP1B1-281 (PTP1B282 in FIG. 12) (Homo sapiens, UniProt P18031).
T1 construct: made in house; host or cells: E. coli BL21 (DE3)
T1 sequence (P18031 1-281): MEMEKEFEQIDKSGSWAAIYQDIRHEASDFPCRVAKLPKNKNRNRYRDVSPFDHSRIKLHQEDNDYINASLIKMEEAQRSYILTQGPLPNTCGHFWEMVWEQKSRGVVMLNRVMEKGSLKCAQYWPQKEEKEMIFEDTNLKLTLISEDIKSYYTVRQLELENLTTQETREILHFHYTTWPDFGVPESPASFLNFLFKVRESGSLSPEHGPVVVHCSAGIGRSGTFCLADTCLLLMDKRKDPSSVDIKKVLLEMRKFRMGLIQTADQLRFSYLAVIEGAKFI
The assay can be described thus: pNPP hydrolysis by PTP1B lacking the α7 helix. The class given is biochemical, H. sapiens. The settings on record: for pKi: PTP1B1-281. How it is done: (§1) Enzyme kinetics. To examine terpenoid-mediated inhibition, we measured PTP-catalyzed hydrolysis of p-nitrophenyl phosphate (pNPP) or 4-methylumbelliferyl phosphate (4-MUP, used when KM for pNPP was large) in the presence of various concentrations of terpenoids. Each reaction included PTP (0.05 μM PTP1B/TCPTP or 0.1 μM SHP1/SHP2 in 50 mM HEPES, 0.5 mM TCEP, 50 μg/ml BSA), pNPP (0.33, 0.67, 2, 5, 10, and 15 mM) or 4-MUP (0.13, 0.27, 0.8, 2.27, 2.93, 4.53, 7.07, and 8 mM), inhibitor (with concentrations listed in the figures), buffer (50 mM HEPES pH=7.3, 50 μg/ml BSA), and DMSO at 10% v/v. We monitored the formation of p-nitrophenol by measuring absorbance at 405 nm every 10 seconds for 5 minutes on a SpectraMax M2 plate reader and the formation of 4-methylumbelliferyl by measuring fluorescence at 450 nm (370 nm ex, 435 nm cutoff, medium gain).
(§2) We used a custom MATLAB script to process all raw kinetic data. This script removed all concentration values that fell outside of either (i) the range of our standard curve (absorbance/fluorescence vs. μM; FIG. 39) or (ii) the initial rate regime (>10% of the pNPP or 4-MUP concentration used in the assay). When this step reduced kinetic dataset to fewer than ten points, we re-measured those datasets to collect at least ten. We fit final datasets, in turn, with a linear regression model (using Matlab's backslash operator).
(§3) We evaluated kinetic models in three steps: (i) We fit initial-rate measurements collected in the absence and presence of inhibitors to Michaelis-Menten and inhibition models, respectively (here, we used the nlinfit and fminsearch functions from MATLAB; TABLE 12). (ii) We used an F-test to compare the mixed model to the single-parameter model with the least sum squared error (here, we used the fedf function from MATLAB to assign p-values), and we accepted the mixed model when p<0.05. (iii) We used the Akaike's Information Criterion (AIC) to compare the best-fit single parameter model to each alternative single parameter model, and we accepted the “best-fit” model when the difference in AIC (Δi) exceed 5 for all comparisons.^78 We note: For AD, AB, and (+) 1-(10),4-cadinadiene this criterion was not met; both noncompetitive and uncompetitive models, however, yielded indistinguishable ICso's.
(§4) We used the MATLAB function “nlparci” to determine the confidence intervals of kinetic parameters, and we propagated those intervals to estimate corresponding confidence intervals for each IC50.

Assay [3] concerns TC-PTP (TCPTP1-317; TCPTP292 in FIG. 12). The experiment in a line: TC-PTP-catalyzed hydrolysis of pNPP in the presence of terpenoids. The class given is biochemical, H. sapiens. The settings on record: PTP1B321 vs TCPTP292 / TC-PTP, pNPP. On the procedure: as §1, §2, §3, §4
Assay [4] deals with T2, TC-PTP (TCPTP1-317; TCPTP292 in FIG. 12) (Mus musculus, UniProt Q06180).
T2 construct: His-tag; made in house; host or cells: E. coli BL21 (DE3), pET16b
T2 sequence (Q06180 1-317): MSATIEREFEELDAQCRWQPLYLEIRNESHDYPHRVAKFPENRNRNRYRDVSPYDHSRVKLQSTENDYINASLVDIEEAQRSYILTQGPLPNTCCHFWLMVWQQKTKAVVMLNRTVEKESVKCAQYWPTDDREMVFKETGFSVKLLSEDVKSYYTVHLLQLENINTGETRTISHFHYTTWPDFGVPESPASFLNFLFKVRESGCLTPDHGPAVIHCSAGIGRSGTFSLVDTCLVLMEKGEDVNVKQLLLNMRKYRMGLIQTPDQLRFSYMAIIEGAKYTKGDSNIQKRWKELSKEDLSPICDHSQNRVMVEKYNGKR
Described as above. The class given is biochemical, H. sapiens. The settings on record: TCPTP1-317. On the procedure:
as §1, §2, §3, §4

Where [5] appears, read: FIG. 3h, t-test, unequal variance.
The mark [6] stands for this setting: competitive model of inhibition, read-out: Fit par. Ki, competitive model.
The mark [7] stands for this setting: mixed model, competitive constant, read-out: Fit par. Ki,c, mixed model.
The mark [8] stands for this setting: mixed model, uncompetitive constant, read-out: Fit par. Ki,u, mixed model.
[9] abbreviates: noncompetitive model of inhibition, read-out: Fit par. Ki, noncompetitive model.
[10] abbreviates: uncompetitive model of inhibition, read-out: Fit par. Ki, uncompetitive model.

Usually pKi stands for the Ki on a negative log10 scale, so that one unit is a factor of ten.

pKi: −log10 of the molar value. Entries after “also recorded” stand apart in the source; their conditions may differ. Read-outs that look alike come from different tables or passages of the source.

For the compound `C=C(C)[C@@H]1CC[C@@H](C)[C@@H]2CCC(C)=C[C@@H]21` [amorphadiene], the “IR phosphorylation (ELISA signal)” value is on record as “inhibit PTP1B inside of a HEK293T/17 cell; also recorded: can increase IR phosphorylation over a negative control” in assay [1] (930 μM); “increased IR phosphorylation over a negative control” in assay [1] (930 μM, listed as AD); “stimulate IR phosphorylation” in assay [1] (930 μM, listed as Amorphadiene). Also, the “Δμ, null hypothesis AD-DHA = 0” value in assay [1] (difference of means AD vs DHA, FIG. 3h, t-test, unequal variance) was 0.124. The “Δμ, null hypothesis compound-(−) = 0” value in assay [1] (setting [5]) worked out at 0.212. For the same compound, the pKi in assay [2] (setting [6]) was 4.42; in assay [2] (setting [7]) it was 3.80; in assay [2] (setting [8]), 3.57; in assay [2] (setting [9]), 3.61; in assay [2] (setting [10]) it was 3.68; in assay [4] (setting [8]), 3.45. The pKi in assay [4] (setting [9]) is 3.40; in assay [4] (setting [10]) it was 3.45. Also, the “potency against PTP1B282 (no α7 helix) relative to PTP1B321” value in assay [2] (pNPP, less potent on PTP1B282) was “~ four-fold”. The “potency against PTP1B relative to TC-PTP (selectivity from IC50's)” value in assay [3] is reported as “~ five-fold; also recorded: much more potently”; in assay [3] (listed as AD), “five- to six-fold”.
In the case of `CC(C)=CCC=C(C)C1CC=C(C)CC1` (stereo not drawn) [α-bisabolene], the “IR phosphorylation (ELISA signal)” value in assay [1] (405 μM) was “stimulate IR phosphorylation; also recorded: can increase IR phosphorylation over a negative control”; in assay [1] (405 μM, listed as AB) it was “increased IR phosphorylation over a negative control”. Moreover, the “Δμ, null hypothesis AB-ABOL = 0” value in assay [1] (difference of means AB vs ABOL, FIG. 3h, t-test, unequal variance) is recorded as 0.309. Further, the “Δμ, null hypothesis compound-(−) = 0” value in assay [1] (setting [5]) worked out at 0.310. Besides, the pKi was 5.19 in assay [2] (setting [6]); 4.41 in assay [2] (setting [7]); 4.32 in assay [2] (setting [8]); 4.33 in assay [2] (setting [9]); 4.40 in assay [2] (setting [10]); 2.44 in assay [4] (setting [7]). For the same compound, the pKi was 4.16 in assay [4] (setting [8]), 4.12 in assay [4] (setting [9]) and 4.16 in assay [4] (setting [10]). Besides, the “potency against PTP1B relative to TC-PTP (selectivity from IC50's)” value in assay [3] is on record as “much more potently”; in assay [3] (listed as AB), “five- to six-fold”.

The values above are taken from patent publication US12729458B2, “Discovery and evolution of biologically active metabolites” (The Regents of the University of Colorado, a Body Corporate, priority 2020, dated 2026).
